Tests used:
FAP = molecular target: T1, FAP (Homo sapiens, UniProt Q12884); assay: In vitro FAP binding affinity, Grating-Coupled Interferometry (GCI), waveRAPID kinetics assay; details: immobilized biotinylated FAP; 1×PBS pH 7.4, 1 mM DTT, 0.005% Tween, 2% DMSO; non-radiolabelled compounds
T1 construct: biotin (biotinylated)
T1 sequence (Q12884 1-760): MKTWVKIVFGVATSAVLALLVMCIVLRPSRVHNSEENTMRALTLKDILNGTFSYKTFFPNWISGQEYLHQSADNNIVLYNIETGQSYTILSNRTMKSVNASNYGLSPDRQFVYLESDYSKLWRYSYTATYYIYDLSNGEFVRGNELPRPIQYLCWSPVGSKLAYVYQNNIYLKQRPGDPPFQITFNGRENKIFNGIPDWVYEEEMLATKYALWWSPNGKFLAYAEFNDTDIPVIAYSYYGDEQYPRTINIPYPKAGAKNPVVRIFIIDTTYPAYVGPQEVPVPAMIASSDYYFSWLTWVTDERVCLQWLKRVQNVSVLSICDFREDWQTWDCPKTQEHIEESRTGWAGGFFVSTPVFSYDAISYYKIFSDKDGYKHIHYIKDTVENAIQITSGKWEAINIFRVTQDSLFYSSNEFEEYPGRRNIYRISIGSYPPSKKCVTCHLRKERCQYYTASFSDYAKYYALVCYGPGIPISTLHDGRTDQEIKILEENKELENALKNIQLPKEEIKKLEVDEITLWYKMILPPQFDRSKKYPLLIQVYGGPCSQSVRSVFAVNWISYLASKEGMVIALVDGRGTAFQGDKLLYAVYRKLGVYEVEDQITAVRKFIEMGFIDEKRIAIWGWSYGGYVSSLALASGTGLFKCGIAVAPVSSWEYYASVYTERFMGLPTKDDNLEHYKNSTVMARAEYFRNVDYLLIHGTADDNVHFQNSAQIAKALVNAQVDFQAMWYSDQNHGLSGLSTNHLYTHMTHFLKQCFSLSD
Experimental: The binding affinity of non-radiolabelled compounds Example 2 (Ga—(S,R,R)—SiFA-FAP-1) and Example 1 ((S,R,R)—SiFA-FAP-1) was assessed in vitro using Grating-Coupled Interferometry (GCI) and waveRAPID kinetics assay (Kartal Ö et al. SLAS Discov. 2021 September; 26(8)-995-1003).
FAP was immobilized on a streptavidin sensor chap in order to assess target binding of compounds. Briefly, the streptavidin chip was conditioned with borate buffer and activated with EDC-NHS solution. Immobilization was achieved via amine coupling to the surface on an amine reactive sensor chip (NeutrAvidin sensor chip) and unused amine reactive groups were deactivated with ethanolamine. FAP was immobilized via via NeutrAvidin capturing of the biotinylated FAP and remaining NeutrAvidin quenched with biocytin. Binding of the compounds to immobilized FAP was assessed using the waveRAPID kinetics assay, using different concentrations of each compound in 1×PBS pH 7.4, 1 mM DTT, 0.005% Tween, 2% DMSO. Binding affinity to FAP was reported as KD.

[1] = tested on: subcutaneous U87-MG tumour; assay: In vivo PET imaging uptake in U87-MG tumour-bearing mice; details: 60 minutes post-radiotracer administration; for PET imaging uptake, Muscle: U87-MG tumor-bearing mice; for PET imaging uptake, Muscle / PET imaging uptake, Tumor: i.v.
Experimental: (§1) The human glioblastoma U87-MG cell line was purchased from ATCC. Cells were cultured in EMEM (supplemented with 2 mM L-glutamine, with 10% fetal bovine serum and 0.1 mM NEAA) at 37° C. in a humidified atmosphere (5% CO2, 95% air).
(§2) All animal experiments were conducted in accordance with the Federation for Laboratory Animal Science Associations guidelines. Healthy female Swiss nude (CrI:NU(Ico)-Foxn1nu) mice (5-6 weeks old) were purchased from Charles River. Mice were irradiated 24-72 hours prior to tumour cell inoculation (whole-body irradiation, 2 Gy/mouse), and U87-MG cells (1×10^7 in 200 μL of RPMI 1640) were then injected subcutaneously into the right shoulder flank.
(§3) Female Swiss nude (CrI:NU(Ico)-Foxn1nu) mice each bearing a subcutaneous U87-MG tumour in the right flank (n=4) were administered with radiolabelled compound of Example 11 ([^18F]—Ga—(S,R,R)—SiFA-FAP-1) (8±1.5 MBq, 100 μL per mouse) intravenously into the tail vein (approximately 3 weeks post inoculation of U87-MG cells). Static PET imaging was performed 60 minutes post-radiotracer administration under anaesthesia (2% isoflurane) using a small animal PET scanner (eXploreVISTA, GE) (n=3). Whole-body PET acquisitions were performed over two bed positions for 20 minutes. Regions of interest were generated, and radiotracer uptake in tissues was calculated as % injected dose per region of interest volume (% ID/cm^3). Immediately post-PET imaging, mice (n=4) were sacrificed and select tissues (blood, tumor, heart, lung, liver, kidneys, spleen, pancreas, intestine, bone, muscle, tail) were harvested and weighed. Radioactivity in the collected samples was determined using γ-counting (Packard). Radiotracer uptake was calculated as % injected dose per gram of tissue (% ID/g).

[2] = tested on: subcutaneous U87-MG tumour; assay: Biodistribution by γ-counting of excised tissues of U87-MG tumour-bearing mice; format: in vivo; details: γ-counting 80 minutes post-radiotracer injection; for Biodistribution, Blood / Biodistribution, Bone / Biodistribution, Heart / Biodistribution, Intestine / Biodistribution, Kidneys / Biodistribution, Liver / Biodistribution, Lung / Biodistribution, Muscle / Biodistribution, Pancreas / Biodistribution, Spleen: U87-MG tumor-bearing mice
Experimental: as §1, §2, §3

Which Kd (FAP) does the source give for `CC(C)(C)[Si](F)(c1ccc(C(=O)NC[C@@H](NC(=O)CC[C@H](C(=O)O)N2CCN(CC(=O)O)CCN(CC(=O)O)CCN(CC(=O)O)CC2)C(=O)NCCCOc2ccc3nccc(C(=O)NCC(=O)N4CCC[C@H]4C#N)c3c2)cc1)C(C)(C)C` [Example 1, 2,2′,2″-(10-((R)-1-Carboxy-4-(((R)-1-((3-((4-((2-((S)-2-cyanopyrrolidin-1-yl)-2-oxoethyl)carbamoyl)quinolin-6-yl)oxy)propyl)amino)-3-(4-(di-tert-butylfluorosilyl)benzamido)-1-oxopropan-2-yl)amino)-4-oxobutyl)-1,4,7,10-tetraazacyclododecane-1,4,7-triyl) triacetic acid] here?
Its Kd is 0.031 nM.

With `CC(C)(C)[Si]([18F])(c1ccc(C(=O)NC[C@@H](NC(=O)CC[C@H](C(=O)O)N2CCN(CC(=O)O)CCN(CC(=O)O)CCN(CC(=O)O)CC2)C(=O)NCCCOc2ccc3nccc(C(=O)NCC(=O)N4CCC[C@H]4C#N)c3c2)cc1)C(C)(C)C` [Example 11] as the compound, how does the “PET imaging Tumor:Muscle ratio” value ([1]; Mean ± SD (n=3)) read?
The value was 4.4 ± 0.8.

And the “PET imaging Tumor:Muscle ratio” value ([1]; Mouse 1)?
The value was 4.6.

What about the “PET imaging Tumor:Muscle ratio” value ([1]; Mouse 2) of the same compound?
The value was 5.

What about the “PET imaging Tumor:Muscle ratio” value ([1]; Mouse 3) of the same compound?
Its value is 3.5.

And the “PET imaging uptake, Muscle” value ([1]; Mean ± SD (n=3))?
The value was 1.0 ± 0.1 % ID/cm^3.

What about the “PET imaging uptake, Muscle” value ([1]; Mouse 1) of the same compound?
The value was 1 % ID/cm^3.

And the “PET imaging uptake, Muscle” value ([1]; Mouse 2)?
The value was 0.8 % ID/cm^3.

What about the “PET imaging uptake, Muscle” value ([1]; Mouse 3) of the same compound?
Its value is 1.1 % ID/cm^3.

And the “PET imaging uptake, Tumor” value ([1]; Mean ± SD (n=3))?
Its value is 4.1 ± 0.3 % ID/cm^3.

And the “PET imaging uptake, Tumor” value ([1]; Mouse 1)?
Its value is 4.4 % ID/cm^3.

And the “PET imaging uptake, Tumor” value ([1]; Mouse 2)?
The value was 4.2 % ID/cm^3.

What about the “PET imaging uptake, Tumor” value ([1]; Mouse 3) of the same compound?
The value was 3.8 % ID/cm^3.

What about the “Biodistribution, Blood” value ([2]; Mean ± SD (n=4)) of the same compound?
Its value is 2.6 ± 1.1 % ID/g.

What about the “Biodistribution, Bone” value ([2]; Mean ± SD (n=4)) of the same compound?
Its value is 5.1 ± 1.3 % ID/g.

And the “Biodistribution, Heart” value ([2]; Mean ± SD (n=4))?
The value was 1.1 ± 0.2 % ID/g.

What about the “Biodistribution, Intestine” value ([2]; Mean ± SD (n=4)) of the same compound?
The value was 7.3 ± 2.4 % ID/g.

And the “Biodistribution, Kidneys” value ([2]; Mean ± SD (n=4))?
Its value is 3.0 ± 1.2 % ID/g.

And the “Biodistribution, Liver” value ([2]; Mean ± SD (n=4))?
Its value is 3.3 ± 0.8 % ID/g.

And the “Biodistribution, Lung” value ([2]; Mean ± SD (n=4))?
The value was 1.7 ± 0.1 % ID/g.

What about the “Biodistribution, Muscle” value ([2]; Mean ± SD (n=4)) of the same compound?
The value was 0.6 ± 0.1 % ID/g.

What about the “Biodistribution, Pancreas” value ([2]; Mean ± SD (n=4)) of the same compound?
The value was 0.6 ± 0.1 % ID/g.

What about the “Biodistribution, Spleen” value ([2]; Mean ± SD (n=4)) of the same compound?
Its value is 0.7 ± 0.1 % ID/g.

And the “Biodistribution, Blood” value ([2]; Mouse 1)?
Its value is 2.0 % ID/g.

And the “Biodistribution, Bone” value ([2]; Mouse 1)?
Its value is 5.7 % ID/g.

And the “Biodistribution, Heart” value ([2]; Mouse 1)?
Its value is 1.1 % ID/g.

What about the “Biodistribution, Intestine” value ([2]; Mouse 1) of the same compound?
The value was 5.4 % ID/g.

And the “Biodistribution, Kidneys” value ([2]; Mouse 1)?
Its value is 3.8 % ID/g.

What about the “Biodistribution, Liver” value ([2]; Mouse 1) of the same compound?
Its value is 3.8 % ID/g.

What about the “Biodistribution, Lung” value ([2]; Mouse 1) of the same compound?
The value was 1.6 % ID/g.

What about the “Biodistribution, Muscle” value ([2]; Mouse 1) of the same compound?
The value was 0.5 % ID/g.

And the “Biodistribution, Pancreas” value ([2]; Mouse 1)?
Its value is 0.7 % ID/g.

And the “Biodistribution, Spleen” value ([2]; Mouse 1)?
The value was 0.7 % ID/g.

What about the “Biodistribution, Blood” value ([2]; Mouse 2) of the same compound?
The value was 1.3 % ID/g.

What about the “Biodistribution, Bone” value ([2]; Mouse 2) of the same compound?
Its value is 6.6 % ID/g.

What about the “Biodistribution, Heart” value ([2]; Mouse 2) of the same compound?
Its value is 0.9 % ID/g.

And the “Biodistribution, Intestine” value ([2]; Mouse 2)?
Its value is 5.3 % ID/g.

And the “Biodistribution, Kidneys” value ([2]; Mouse 2)?
Its value is 1.6 % ID/g.

And the “Biodistribution, Liver” value ([2]; Mouse 2)?
Its value is 2.5 % ID/g.

And the “Biodistribution, Lung” value ([2]; Mouse 2)?
The value was 1.8 % ID/g.

What about the “Biodistribution, Muscle” value ([2]; Mouse 2) of the same compound?
The value was 0.8 % ID/g.

What about the “Biodistribution, Pancreas” value ([2]; Mouse 2) of the same compound?
The value was 0.6 % ID/g.

And the “Biodistribution, Spleen” value ([2]; Mouse 2)?
Its value is 0.6 % ID/g.

And the “Biodistribution, Blood” value ([2]; Mouse 3)?
The value was 3.5 % ID/g.

And the “Biodistribution, Bone” value ([2]; Mouse 3)?
Its value is 4.0 % ID/g.

What about the “Biodistribution, Heart” value ([2]; Mouse 3) of the same compound?
The value was 1.3 % ID/g.

What about the “Biodistribution, Intestine” value ([2]; Mouse 3) of the same compound?
Its value is 8.6 % ID/g.

What about the “Biodistribution, Kidneys” value ([2]; Mouse 3) of the same compound?
Its value is 4.2 % ID/g.

What about the “Biodistribution, Liver” value ([2]; Mouse 3) of the same compound?
Its value is 2.7 % ID/g.

And the “Biodistribution, Lung” value ([2]; Mouse 3)?
The value was 1.7 % ID/g.

What about the “Biodistribution, Muscle” value ([2]; Mouse 3) of the same compound?
The value was 0.5 % ID/g.

What about the “Biodistribution, Pancreas” value ([2]; Mouse 3) of the same compound?
The value was 0.6 % ID/g.

And the “Biodistribution, Spleen” value ([2]; Mouse 3)?
The value was 0.7 % ID/g.

What about the “Biodistribution, Blood” value ([2]; Mouse 4) of the same compound?
Its value is 3.5 % ID/g.

And the “Biodistribution, Bone” value ([2]; Mouse 4)?
Its value is 4.2 % ID/g.

What about the “Biodistribution, Heart” value ([2]; Mouse 4) of the same compound?
Its value is 1.2 % ID/g.

And the “Biodistribution, Intestine” value ([2]; Mouse 4)?
The value was 10.1 % ID/g.

What about the “Biodistribution, Kidneys” value ([2]; Mouse 4) of the same compound?
The value was 2.4 % ID/g.

What about the “Biodistribution, Liver” value ([2]; Mouse 4) of the same compound?
The value was 4.2 % ID/g.

And the “Biodistribution, Lung” value ([2]; Mouse 4)?
Its value is 1.8 % ID/g.

What about the “Biodistribution, Muscle” value ([2]; Mouse 4) of the same compound?
Its value is 0.6 % ID/g.

And the “Biodistribution, Pancreas” value ([2]; Mouse 4)?
The value was 0.5 % ID/g.

What about the “Biodistribution, Spleen” value ([2]; Mouse 4) of the same compound?
Its value is 0.7 % ID/g.

What about the “radiotracer uptake higher in tumor compared to muscle (biodistribution analyses)” value [2] of the same compound?
The value was 8 fold.

And the “Biodistribution - Tumor to muscle ratio (T:M)” value ([2]; Mean ± SD (n=4))?
Its value is 8.3 ± 2.9.

And the “Biodistribution, Tumor” value ([2]; Mean ± SD (n=4))?
The value was 4.8 ± 1.1 % ID/g.

What about the “Biodistribution - Tumor to muscle ratio (T:M)” value ([2]; Mouse 1) of the same compound?
The value was 11.0.

And the “Biodistribution, Tumor” value ([2]; Mouse 1)?
Its value is 5.8 % ID/g.

And the “Biodistribution - Tumor to muscle ratio (T:M)” value ([2]; Mouse 2)?
Its value is 5.9.

And the “Biodistribution, Tumor” value ([2]; Mouse 2)?
The value was 4.8 % ID/g.

And the “Biodistribution - Tumor to muscle ratio (T:M)” value ([2]; Mouse 3)?
Its value is 10.6.

What about the “Biodistribution, Tumor” value ([2]; Mouse 3) of the same compound?
Its value is 5.2 % ID/g.

What about the “Biodistribution - Tumor to muscle ratio (T:M)” value ([2]; Mouse 4) of the same compound?
Its value is 5.7.

What about the “Biodistribution, Tumor” value ([2]; Mouse 4) of the same compound?
Its value is 3.2 % ID/g.

— patent US20240399001A1, “RA[…] TH[…] TO FIBROBLAST ACTIVATION PROTEIN (FAP)” (BLUE EARTH D[…], priority 2021, published 2024)
